In paper PMC7987348, “Structural basis for human TRPC5 channel inhibition by two distinct inhibitors” (eLife, 2021):
Changes are numbered by the printed parent chain. Read-outs that look alike come from different tables or passages of the source.

What was measured:
TRPC5 = tested on: TRPC5; parameters: method as in Richter et al., 2014; Zhou et al., 2017; Zhu et al., 2015; details: ref Richter et al., 2014; Zhou et al., 2017; Zhu et al., 2015; read-out: IC50 for inhibition of TRPC5; cited from earlier work
hTRPC5 N443L = target: T1, hTRPC5 N443L (Homo sapiens, UniProt Q9UL62, N443L); assay: FLIPR calcium assay, hTRPC5 mutant N443L; assay type: cell-based
T1 construct: We use full-length nontagged hTRPC5 construct for FLIPR assay unless indicated otherwise; expressed in transfected cells; host or cells: AD293
T1 sequence (Q9UL62 1-973 N443L): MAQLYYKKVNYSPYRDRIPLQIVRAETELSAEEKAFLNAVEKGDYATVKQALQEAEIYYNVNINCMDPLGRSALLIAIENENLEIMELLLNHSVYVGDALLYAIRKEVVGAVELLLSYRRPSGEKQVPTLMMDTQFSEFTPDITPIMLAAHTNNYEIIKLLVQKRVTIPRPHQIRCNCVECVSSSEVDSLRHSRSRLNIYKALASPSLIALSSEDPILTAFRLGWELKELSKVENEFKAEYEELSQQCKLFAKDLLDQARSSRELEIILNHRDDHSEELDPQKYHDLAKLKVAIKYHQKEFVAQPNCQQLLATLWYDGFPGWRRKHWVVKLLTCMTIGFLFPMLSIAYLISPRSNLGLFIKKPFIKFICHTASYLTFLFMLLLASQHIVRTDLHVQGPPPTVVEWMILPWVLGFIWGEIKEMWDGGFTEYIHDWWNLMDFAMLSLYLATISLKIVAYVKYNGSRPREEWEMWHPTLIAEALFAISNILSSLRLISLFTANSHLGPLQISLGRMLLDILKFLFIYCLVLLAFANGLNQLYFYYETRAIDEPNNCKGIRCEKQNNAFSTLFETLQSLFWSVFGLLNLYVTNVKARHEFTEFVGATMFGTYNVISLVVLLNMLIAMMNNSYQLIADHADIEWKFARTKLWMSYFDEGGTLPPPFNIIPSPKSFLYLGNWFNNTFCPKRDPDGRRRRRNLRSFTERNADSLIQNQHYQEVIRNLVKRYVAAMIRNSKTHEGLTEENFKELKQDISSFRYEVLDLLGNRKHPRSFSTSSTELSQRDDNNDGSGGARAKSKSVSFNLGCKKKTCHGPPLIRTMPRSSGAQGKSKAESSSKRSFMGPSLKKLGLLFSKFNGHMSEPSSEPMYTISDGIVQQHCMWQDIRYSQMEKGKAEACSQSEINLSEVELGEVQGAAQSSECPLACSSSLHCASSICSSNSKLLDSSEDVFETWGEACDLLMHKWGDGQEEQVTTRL
Protocol: (§1) […]. Then the suspended cell culture was further diluted for 5.4- to 7-fold with culture medium and seeded onto black well, clear bottom, poly-D-lysine-coated 96-well plate (Costar) and cultured overnight. We use full-length nontagged hTRPC5 construct for FLIPR assay unless indicated otherwise. hTRPC5 plasmids were transfected into AD293 cells (60-80% confluence) with PEI. 30–40 hr post-transfection, culture medium was discarded and cells were incubated with 50 μl per well of 4 μM Rhod-2/AM (AAT Bioquest) in TARODES’s buffer (10 mM HEPES, 150 mM NaCl, 4 mM KCl, 2 mM MgCl2, 2 mM CaCl2, 11 mM glucose, pH 7.4) supplemented with 0.02% Pluronic F-127 (Sigma) for 5 min in dark at room temperature. Then dye was removed and replaced with 50 μl of TARODE’s buffer per well. The application of compounds and detection of intracellular calcium elevation were performed using FLIPR-TETRA (Molecular Devices) at room temperature (25–27°C). Fluorescence signals were read with excitation/emission at 510–545/565–625 nm.
(§2) […]. Then fluorescence was measured for 300 s.
(§3) Buffer A contains 2× concentration of working concentration of inhibitor. […]. for control-Min, both buffer A and buffer B were replaced by TARODE’s buffer.
(§4) […]; the average of fluorescence value of last 20 time points was considered as the ‘end fluorescence’. The value of ‘end fluorescence’ minus ‘start fluorescence’ was considered as ‘signal value’ for each well. […].
(§5) Three independent experiments were performed on different days (biological replicates), with each experiment containing three replicates (technique replicates).

hTRPC5 F414M = target: T2, hTRPC5 F414M (Homo sapiens, UniProt Q9UL62, F414M); assay: FLIPR calcium assay, hTRPC5 mutant F414M; assay type: cell-based
T2 construct: We use full-length nontagged hTRPC5 construct for FLIPR assay unless indicated otherwise; expressed in transfected cells; host or cells: AD293
T2 sequence (Q9UL62 1-973 F414M): T1 sequence (Q9UL62 1-973 N443L) with F414M, L443N
Protocol: as §1, §2, §3, §4, §5

[1] = CMZ, 14 mM extracellular calcium, read-out: IC50
[2] = CMZ, log of IC50 in μM, logIC50 ± SEM, n = 3, read-out: LogIC50 (converted)
[3] = read-out: normalized RFU (% WT), Clemizole 0.400391 μM, 14 mM Ca2+, each column one independent experiment
[4] = read-out: normalized RFU (% WT), Clemizole 0.800781 μM, 14 mM Ca2+, each column one independent experiment
[5] = read-out: normalized RFU (% WT), Clemizole 6.40625 μM, 14 mM Ca2+, each column one independent experiment

SMILES: Clc1ccc(Cn2c(CN3CCCC3)nc3ccccc32)cc1 [CMZ, clemizole]
- IC50 (TRPC5): 1000 to 1300 nM
- Hill slope (hTRPC5 N443L; CMZ): −2.42
- IC50 (hTRPC5 N443L; [1]): 10.4 µM
- IC50 (hTRPC5 N443L; [2]): 10.5 µM
- remaining activity at 0.400391 µM (hTRPC5 N443L; [3]): 89.5%
- remaining activity at 0.800781 µM (hTRPC5 N443L; [4]): 64.6%
- remaining activity at 3.20312 µM (hTRPC5 N443L; read-out: normalized RFU (% WT), Clemizole 3.20312 μM, 14 mM Ca2+, each column one independent experiment): 56.3%
- remaining activity at 6.40625 µM (hTRPC5 N443L; [5]): 52.8%
- Hill slope (hTRPC5 F414M; CMZ): −1.45
- IC50 (hTRPC5 F414M; [1]): 2.15 µM
- IC50 (hTRPC5 F414M; [2]): 2.14 µM
- remaining activity at 0.200195 µM (hTRPC5 F414M; read-out: normalized RFU (% WT), Clemizole 0.200195 μM, 14 mM Ca2+, each column one independent experiment): 130%
- remaining activity at 0.400391 µM (hTRPC5 F414M; [3]): 116%
- remaining activity at 0.800781 µM (hTRPC5 F414M; [4]): 107%
- remaining activity at 6.40625 µM (hTRPC5 F414M; [5]): 32.1%
